Experimental data from patent publication US12110293B2, “Substituted triazolo quinoxaline derivatives” (GRÜNENTHAL GMBH, priority 2018, dated 2024).

Biological target: T1, glucocorticoid receptor (Homo sapiens, UniProt P04150)
T1 construct: expressed in transfected cells
T1 sequence (P04150 524-758 limits assumed): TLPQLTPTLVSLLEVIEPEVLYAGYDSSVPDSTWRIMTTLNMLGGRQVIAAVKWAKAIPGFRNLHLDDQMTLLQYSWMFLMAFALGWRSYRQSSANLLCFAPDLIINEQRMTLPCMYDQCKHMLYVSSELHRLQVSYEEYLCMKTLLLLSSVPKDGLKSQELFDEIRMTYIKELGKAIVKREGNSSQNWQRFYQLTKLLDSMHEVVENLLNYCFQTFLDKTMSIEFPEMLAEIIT
Assay: Agonistic mode of action on the glucocorticoid receptor (CHO-Gal4/GR luciferase reporter cell line)
Type: cell-based
Settings: range class observed in the agonistic assay or the antagonistic assay (CHO-Gal4/GR reporter cells); table does not say which mode applies per example
Method in brief: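 CHO cells stably carrying GAL4 DBD–GR ligand-binding-domain fusion and GAL4-UAS firefly luciferase reporter, 5000 cells/well grown 24 h, then compounds added in Opti-MEM at 8 half-log concentrations from 10 μM to 0.003 μM (0.5% DMSO), quadruplicates. Agonist-induced luminescence read on FLIPR Tetra; EC50 calculated.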

Row | Compound | IC50 or EC50 (agonist or antagonist mode not specified) [µM]
1 | Cc1c(-c2cccc3cc[nH]c23)c(F)cc2c1-n1c(C)nnc1C(C)(C)N2 [Example 25, 7-fluoro-8-(1H-indol-7-yl)-1,4,4,9-tetramethyl-4,5-dihydro-[1,2,4]triazolo[4,3-a]quinoxaline] | 0.1 to 1
2 | COCCn1ccc2c(-c3c(Cl)cc4c(c3F)-n3c(C)nnc3C(C)(C)N4)cccc21 [Example 280, 7-Chloro-9-fluoro-8-[1-(2-methoxy-ethyl)-1H-indol-4-yl]-1,4,4-trimethyl-5H-[1,2,4]triazolo[4,3-a]quinoxaline] | 1 to 15
3 | COc1cc2c(c(C(F)(F)F)c1-c1cc(F)cc3c1ccn3S(C)(=O)=O)-n1c(C)nnc1C(C)(C)N2 [Example 329, 8-(6-Fluoro-1-methylsulfonyl-1H-indol-4-yl)-7-methoxy-1,4,4-trimethyl-9-(trifluoromethyl)-5H-[1,2,4]triazolo[4,3-a]quinoxaline] | 0.1 to 1
4 | COc1cc2c(c(C(F)(F)F)c1-c1cccc3c1ccn3C1CC1)-n1c(C)nnc1C(C)(C)N2 [Example 523, 8-(1-Cyclopropyl-1H-indol-4-yl)-7-methoxy-1,4,4-trimethyl-9-(trifluoromethyl)-5H-[1,2,4]triazolo[4,3-a]quinoxaline] | 0.1 to 1
5 | Cc1nnc2n1-c1c(cc(F)c(-c3cc(F)cc4c3ccn4S(=O)(=O)C3CC3)c1F)NC2(C)C [Example 19, 8-(1-(cyclopropylsulfonyl)-6-fluoro-1H-indol-4-yl)-7,9-difluoro-1,4,4-trimethyl-4,5-dihydro-[1,2,4]triazolo[4,3-a]quinoxaline] | 0.1 to 1
6 | Cc1c(-c2ccc(Cl)c3c2ccn3S(C)(=O)=O)c(F)cc2c1-n1c(C)nnc1C(C)(C)N2 [Example 525, 8-(7-Chloro-1-methylsulfonyl-1H-indol-4-yl)-7-fluoro-1,4,4,9-tetramethyl-5H-[1,2,4]triazolo [4,3-a]quinoxaline] | 0.1 to 1
7 | Cc1nnc2n1-c1c(cc(F)c(-c3cc(C#N)cc4[nH]ccc34)c1C(F)(F)F)NC2(C)C [Example 479, 4-[7-Fluoro-1,4,4-trimethyl-9-(trifluoromethyl)-5H-[1,2,4]triazolo[4,3-a]quinoxalin-8-yl]-1H-indole-6-carbonitrile] | 0.1 to 1
8 | CC#Cc1c[nH]c2c(-c3c(F)cc4c(c3C)-n3c(C)nnc3C(C)(C)N4)cccc12 [Example 28, 7-fluoro-1,4,4,9-tetramethyl-8-(3-(prop-1-yn-1-yl)-1H-indol-7-yl)-4,5-dihydro-[1,2,4]triazolo[4,3-a]quinoxaline] | < 0.1
9 | Cc1c(-c2cc(F)cc3c2cnn3CC(F)F)c(OC(F)(F)F)cc2c1-n1c(C)nnc1C(C)(C)N2 [Example 469, 8-[1-(2,2-Difluoro-ethyl)-6-fluoro-1H-indazol-4-yl]-1,4,4,9-tetramethyl-7-(trifluoromethyloxy)-5H-[1,2,4]triazolo[4,3-a]quinoxaline] | 0.1 to 1
10 | Cc1c(-c2cccc3c2ccn3C)c(Cl)cc2c1-n1c(C)nnc1C(C)(C)N2 [Example 488, 7-Chloro-1,4,4,9-tetramethyl-8-(1-methyl-1H-indol-4-yl)-5H-[1,2,4]triazolo[4,3-a]quinoxaline] | 0.1 to 1
11 | Cc1nnc2n1-c1c(cc(F)c(-c3cc(F)cc4c3ccn4S(C)(=O)=O)c1C(F)F)NC2(C)C [Example 390, 9-(Difluoro-methyl)-7-fluoro-8-(6-fluoro-1-methylsulfonyl-1H-indol-4-yl)-1,4,4-trimethyl-5H-[1,2,4]triazolo[4,3-a]quinoxaline] | < 0.1
12 | COc1c(-c2cc(F)cc3[nH]ccc23)c(F)cc2c1-n1c(C)nnc1C(C)(C)N2 [Example 468, 7-Fluoro-8-(6-fluoro-1H-indol-4-yl)-9-methoxy-1,4,4-trimethyl-5H-[1,2,4]triazolo[4,3-a]quinoxaline] | < 0.1
13 | COc1c(-c2cc(F)cc3c2ccn3CCO)c(F)cc2c1-n1c(C)nnc1C(C)(C)N2 [Example 380, 2-[6-Fluoro-4-(7-fluoro-9-methoxy-1,4,4-trimethyl-5H-[1,2,4]triazolo [4,3-a]quinoxalin-8-yl)-1H-indol-1-yl]-ethanol] | 1 to 15
14 | Cc1nnc2n1-c1c(cc(F)c(-c3ccc(F)c4[nH]ncc34)c1F)NC2(C)C [Example 501, 7,9-Difluoro-8-(7-fluoro-1H-indazol-4-yl)-1,4,4-trimethyl-5H-[1,2,4]triazolo[4,3-a]quinoxaline] | 0.1 to 1
15 | CCS(=O)(=O)n1ccc2c(-c3c(F)cc4c(c3F)-n3c(C)nnc3C(C)(C)N4)cc(F)cc21 [Example 18, 8-(1-(ethylsulfonyl)-6-fluoro-1H-indol-4-yl)-7,9-difluoro-1,4,4-trimethyl-4,5-dihydro-[1,2,4]triazolo[4,3-a]quinoxaline] | 0.1 to 1
16 | Cc1c(-c2cccc3c(C)c[nH]c23)c(Cl)cc2c1-n1c(C)nnc1C(C)(C)N2 [Example 358, 7-Chloro-1,4,4,9-tetramethyl-8-(3-methyl-1H-indol-7-yl)-5H-[1,2,4]triazolo[4,3-a]quinoxaline] | < 0.1
17 | Cc1nnc2n1-c1c(cc(F)c(-c3cccc4c3cnn4CC3CC3)c1F)NC2(C)C [Example 235, 8-[1-(Cyclopropyl-methyl)-1H-indazol-4-yl]-7,9-difluoro-1,4,4-trimethyl-5H-[1,2,4]triazolo[4,3-a]quinoxaline] | < 0.1
18 | Cc1c[nH]c2c(-c3ccc4c(c3C(F)(F)F)-n3c(C)nnc3C(C)(C)N4)cc(F)cc12 [Example 507, 8-(5-Fluoro-3-methyl-1H-indol-7-yl)-1,4,4-trimethyl-9-(trifluoro-methyl)-5H-[1,2,4]triazolo[4,3-a] quinoxaline] | < 0.1
19 | COc1cc2c(c(C(F)(F)F)c1-c1cccc3c1ccn3CC(F)F)-n1c(C)nnc1C(C)(C)N2 [Example 500, 8-[1-(2,2-Difluoro-ethyl)-1H-indol-4-yl]-7-methoxy-1,4,4-trimethyl-9-(trifluoromethyl)-5H-[1,2,4]triazolo[4,3-a]quinoxaline] | 0.1 to 1
20 | Cc1c(-c2cccc3c(C#CC(C)(C)N)c[nH]c23)c(F)cc2c1-n1c(C)nnc1C(C)(C)N2 [Example 40] | < 0.1
21 | Cc1nnc2n1-c1c(cc(F)c(-c3cccc4c3cnn4C(=O)OC(C)(C)C)c1F)NC2(C)C [Example 238, 4-(7,9-Difluoro-1,4,4-trimethyl-5H-[1,2,4]triazolo[4,3-a]quinoxalin-8-yl)-1H-indazole-1-carboxylic acid tert-butyl ester] | 0.1 to 1
22 | Cc1nnc2n1-c1c(cc(F)c(-c3cccc4c(C5CCC5)c[nH]c34)c1Cl)NC2(C)C [Example 41, 9-chloro-8-(3-cyclobutyl-1H-indol-7-yl)-7-fluoro-1,4,4-trimethyl-4,5-dihydro-[1,2,4]triazolo[4,3-a]quinoxaline] | < 0.1
23 | Cc1c(-c2ccc(F)c3[nH]ncc23)c(F)cc2c1-n1c(C)nnc1C(C)(C)N2 [Example 524, 7-Fluoro-8-(7-fluoro-1H-indazol-4-yl)-1,4,4,9-tetramethyl-5H-[1,2,4]triazolo[4,3-a]quinoxaline] | 0.1 to 1
24 | Cc1nnc2n1-c1c(cc(F)c(-c3cccc4c3ccn4S(=O)(=O)C3CCCC3)c1F)NC2(C)C [Example 201, 8-[1-(Cyclopentylsulfonyl)-1H-indol-4-yl]-7,9-difluoro-1,4,4-trimethyl-5H-[1,2,4]triazolo[4,3-a]quinoxaline] | 1 to 15
25 | Cc1cc2c(c(C)c1-c1cc(F)cc3c1ccn3S(C)(=O)=O)-n1c(C)nnc1C(C)(C)N2 [Example 328, 8-(6-Fluoro-1-methylsulfonyl-1H-indol-4-yl)-1,4,4,7,9-pentamethyl-5H-[1,2,4]triazolo[4,3-a]quinoxaline] | 0.1 to 1
26 | Cc1c[nH]c2c(-c3c(C(F)F)cc4c(c3F)-n3c(C)nnc3C(C)(C)N4)cc(F)cc12 [Example 296, 7-(Difluoro-methyl)-9-fluoro-8-(5-fluoro-3-methyl-1H-indol-7-yl)-1,4,4-trimethyl-5H-[1,2,4]triazolo[4,3-a]quinoxaline] | 0.1 to 1
27 | Cc1nnc2n1-c1c(cc(F)c(-c3c(F)ccc4[nH]ccc34)c1F)NC2(C)C [Example 214, 7,9-Difluoro-8-(5-fluoro-1H-indol-4-yl)-1,4,4-trimethyl-5H-[1,2,4]triazolo[4,3-a]quinoxaline] | < 0.1
28 | COCCn1ccc2c(-c3c(Cl)cc4c(c3C)-n3c(C)nnc3C(C)(C)N4)cccc21 [Example 338, 7-Chloro-8-[1-(2-methoxy-ethyl)-1H-indol-4-yl]-1,4,4,9-tetramethyl-5H-[1,2,4]triazolo[4,3-a]quinoxaline] | 0.1 to 1
29 | Cc1nnc2n1-c1c(cc(F)c(-c3cccc4c3cnn4S(=O)(=O)C3CC3)c1F)NC2(C)C [Example 234, 8-[1-(Cyclopropylsulfonyl)-1H-indazol-4-yl]-7,9-difluoro-1,4,4-trimethyl-5H-[1,2,4]triazolo[4,3-a]quinoxaline] | 1 to 15
30 | Cc1nnc2n1-c1c(ccc(-c3cc(F)cc4c3ccn4S(C)(=O)=O)c1C(F)F)NC2(C)C [Example 526, 9-(Difluoro-methyl)-8-(6-fluoro-1-methylsulfonyl-1H-indol-4-yl)-1,4,4-trimethyl-5H-[1,2,4] triazolo[4,3-a]quinoxaline] | 0.1 to 1
